Reference: the supplement of paper PMC8612539
In brackets after ≈: the same amount, converted by molar mass.

System: Mannheimia haemolytica
Assay: minimum inhibitory concentration (MIC)
Procedure: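 Broth microdilution MIC (Sensititre BOPO7F bovine plate, CLSI methods) of 19 antimicrobials against field isolates of P. multocida, M. haemolytica, H. somni (deep nasopharyngeal swabs) and E. coli, Enterococcus spp. (rectal swabs) from weaned dairy heifers. Incubation 16-24 h at 35 C. MIC is the lowest concentration preventing visible growth. Values with <= or > lie at the tested range limits. Trimethoprim-sulfamethoxazole is given as the trimethoprim component of a 1:19 mixture.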

NC[C@@H]1O[C@H](O[C@H]2[C@@H](O)[C@H](O[C@@H]3[C@@H](O)[C@H](N)C[C@H](N)[C@H]3O[C@H]3O[C@H](CN)[C@@H](O)[C@H](O)[C@H]3N)O[C@@H]2CO)[C@H](N)[C@@H](O)[C@@H]1O [Neomycin]
Conditions	minimum inhibitory concentration [µg/mL]
isolate (source animal id): 8	> 32
isolate (source animal id): 13	> 32
isolate (source animal id): 18	> 32
isolate (source animal id): 21	> 32
isolate (source animal id): 25	> 32
isolate (source animal id): 27	> 32
isolate (source animal id): 28	8 (≈ 13 µM)
isolate (source animal id): 30	> 32
isolate (source animal id): 31	16 (≈ 26 µM)
isolate (source animal id): 32	> 32
isolate (source animal id): 34	> 32
isolate (source animal id): 36	> 32
isolate (source animal id): 37	> 32
isolate (source animal id): 40	> 32
isolate (source animal id): 41	> 32
isolate (source animal id): 43	> 32
isolate (source animal id): 46	> 32
isolate (source animal id): 49	> 32
isolate (source animal id): 50	> 32
isolate (source animal id): 51	> 32
isolate (source animal id): 52	> 32
isolate (source animal id): 53	> 32
isolate (source animal id): 55	32 (≈ 52.1 µM)
isolate (source animal id): 56	> 32
isolate (source animal id): 57	> 32
isolate (source animal id): 100	> 32
isolate (source animal id): 103	> 32
isolate (source animal id): 107	> 32
isolate (source animal id): 108	> 32
isolate (source animal id): 112	> 32
isolate (source animal id): 113	> 32
isolate (source animal id): 121	> 32
isolate (source animal id): 122	> 32
isolate (source animal id): 123	> 32
isolate (source animal id): 126	> 32
isolate (source animal id): 133	> 32
isolate (source animal id): 135	> 32
isolate (source animal id): 138	> 32
isolate (source animal id): 141	> 32
isolate (source animal id): 142	> 32
isolate (source animal id): 145	> 32
isolate (source animal id): 149	≤ 4
isolate (source animal id): 151	≤ 4
isolate (source animal id): 152	8 (≈ 13 µM)
isolate (source animal id): 154	8 (≈ 13 µM)
isolate (source animal id): 159	> 32
isolate (source animal id): 162	> 32
isolate (source animal id): 170	> 32
isolate (source animal id): 171	≤ 4
isolate (source animal id): 172	> 32
isolate (source animal id): 173	> 32
isolate (source animal id): 179	> 32
isolate (source animal id): 180	> 32
isolate (source animal id): 183	> 32
isolate (source animal id): 186	> 32
isolate (source animal id): 187	> 32
isolate (source animal id): 188	> 32
isolate (source animal id): 190	8 (≈ 13 µM)
isolate (source animal id): 191	> 32
isolate (source animal id): 192	≤ 4
isolate (source animal id): 201	> 32
isolate (source animal id): 202	> 32
isolate (source animal id): 209	> 32
isolate (source animal id): 211	8 (≈ 13 µM)
isolate (source animal id): 220	> 32
isolate (source animal id): 221	> 32
isolate (source animal id): 223	> 32
isolate (source animal id): 233	> 32
isolate (source animal id): 237	8 (≈ 13 µM)
isolate (source animal id): 241	> 32
isolate (source animal id): 252	> 32
isolate (source animal id): 253	> 32
isolate (source animal id): 259	> 32
isolate (source animal id): 260	> 32
isolate (source animal id): 262	> 32
isolate (source animal id): 282	> 32
isolate (source animal id): 287	> 32
